The CheMixHub ionic liquid set
± gives the uncertainty stated by the source.

Test: xn = mol fraction of the nth substance listed

CCCCCCCC[n+]1ccc(C)cc1.[Br-] + CO/N=C(\C(=O)N[C@@H]1C(=O)N2C(C(=O)[O-])=C(CSc3nc(=O)c(=O)[n-]n3C)CS[C@H]12)c1csc(N)n1.[Na+].[Na+] + O
viscosity [mPa·s], 100 kPa
Conditions | 288.15 K | 293.15 K | 298.15 K | 303.15 K | 308.15 K
x2 = 0, x1 = 0.0006354 | 1.179 ± 0.049 | 1.031 ± 0.042 | 0.915 ± 0.038 | 0.817 ± 0.034 | 0.737 ± 0.03
x2 = 0, x1 = 0.0009577 | 1.196 ± 0.049 | 1.046 ± 0.043 | 0.929 ± 0.038 | 0.833 ± 0.034 | 0.749 ± 0.031
x2 = 0, x1 = 0.001283 | 1.217 ± 0.05 | 1.063 ± 0.044 | 0.941 ± 0.039 | 0.844 ± 0.035 | 0.76 ± 0.031
x2 = 0.0003362, x1 = 0.0009574 | 1.244 ± 0.051 | 1.089 ± 0.045 | 0.97 ± 0.04 | 0.867 ± 0.036 | 0.781 ± 0.032
x2 = 0.0003451, x1 = 0.001283 | 1.269 ± 0.052 | 1.108 ± 0.046 | 0.977 ± 0.04 | 0.863 ± 0.035 | 0.786 ± 0.032
x2 = 0.0003509, x1 = 0.0006352 | 1.243 ± 0.051 | 1.076 ± 0.044 | 0.949 ± 0.039 | 0.847 ± 0.035 | 0.77 ± 0.032
x2 = 0.0008524, x1 = 0.0006349 | 1.314 ± 0.054 | 1.15 ± 0.047 | 1.021 ± 0.042 | 0.909 ± 0.037 | 0.816 ± 0.034
x2 = 0.0008642, x1 = 0.001282 | 1.358 ± 0.056 | 1.183 ± 0.049 | 1.047 ± 0.043 | 0.937 ± 0.039 | 0.842 ± 0.035
x2 = 0.0008856, x1 = 0.0009569 | 1.333 ± 0.055 | 1.169 ± 0.048 | 1.039 ± 0.043 | 0.929 ± 0.038 | 0.828 ± 0.034
x2 = 0.001395, x1 = 0.0006346 | 1.411 ± 0.058 | 1.235 ± 0.051 | 1.094 ± 0.045 | 0.974 ± 0.04 | 0.873 ± 0.036
x2 = 0.0014, x1 = 0.0009564 | 1.452 ± 0.06 | 1.252 ± 0.052 | 1.109 ± 0.046 | 0.989 ± 0.041 | 0.885 ± 0.036
x2 = 0.00141, x1 = 0.001281 | 1.459 ± 0.06 | 1.271 ± 0.053 | 1.124 ± 0.046 | 1.004 ± 0.041 | 0.901 ± 0.037
x2 = 0.001941, x1 = 0.0006342 | 1.52 ± 0.063 | 1.33 ± 0.055 | 1.174 ± 0.048 | 1.046 ± 0.043 | 0.936 ± 0.039
x2 = 0.001965, x1 = 0.0009558 | 1.543 ± 0.064 | 1.351 ± 0.056 | 1.194 ± 0.049 | 1.064 ± 0.044 | 0.953 ± 0.039
x2 = 0.00197, x1 = 0.001281 | 1.576 ± 0.065 | 1.374 ± 0.057 | 1.209 ± 0.05 | 1.084 ± 0.045 | 0.97 ± 0.04
x2 = 0.002508, x1 = 0.0006339 | 1.642 ± 0.068 | 1.433 ± 0.059 | 1.264 ± 0.052 | 1.124 ± 0.046 | 1.006 ± 0.041
x2 = 0.00254, x1 = 0.0009553 | 1.671 ± 0.069 | 1.46 ± 0.06 | 1.287 ± 0.053 | 1.145 ± 0.047 | 1.023 ± 0.042
x2 = 0.00255, x1 = 0.00128 | 1.705 ± 0.071 | 1.487 ± 0.062 | 1.308 ± 0.054 | 1.165 ± 0.048 | 1.042 ± 0.043
x2 = 0.003119, x1 = 0.0006335 | 1.786 ± 0.074 | 1.558 ± 0.064 | 1.372 ± 0.056 | 1.219 ± 0.05 | 1.091 ± 0.045
x2 = 0.003121, x1 = 0.0009547 | 1.817 ± 0.075 | 1.587 ± 0.065 | 1.397 ± 0.058 | 1.239 ± 0.051 | 1.108 ± 0.046
x2 = 0.003147, x1 = 0.001279 | 1.858 ± 0.077 | 1.622 ± 0.067 | 1.427 ± 0.059 | 1.267 ± 0.052 | 1.133 ± 0.047
x2 = 0.003941, x1 = 0.0006329 | 2.01 ± 0.083 | 1.747 ± 0.072 | 1.535 ± 0.063 | 1.359 ± 0.056 | 1.212 ± 0.05
x2 = 0.003972, x1 = 0.0009539 | 2.048 ± 0.084 | 1.776 ± 0.073 | 1.562 ± 0.064 | 1.382 ± 0.057 | 1.233 ± 0.051
x2 = 0.003997, x1 = 0.001278 | 2.093 ± 0.087 | 1.814 ± 0.075 | 1.593 ± 0.066 | 1.411 ± 0.058 | 1.256 ± 0.052
x2 = 0.004812, x1 = 0.0006324 | 2.281 ± 0.094 | 1.979 ± 0.082 | 1.732 ± 0.071 | 1.528 ± 0.063 | 1.36 ± 0.056
x2 = 0.004853, x1 = 0.0009531 | 2.331 ± 0.096 | 2.019 ± 0.083 | 1.768 ± 0.073 | 1.557 ± 0.064 | 1.385 ± 0.057
x2 = 0.004881, x1 = 0.001277 | 2.385 ± 0.099 | 2.057 ± 0.085 | 1.804 ± 0.075 | 1.588 ± 0.066 | 1.409 ± 0.058
x2 = 0.005508, x1 = 0.000632 | 2.52 ± 0.1 | 2.189 ± 0.09 | 1.911 ± 0.079 | 1.681 ± 0.069 | 1.492 ± 0.061
x2 = 0.005554, x1 = 0.0009524 | 2.59 ± 0.11 | 2.238 ± 0.092 | 1.952 ± 0.081 | 1.714 ± 0.071 | 1.52 ± 0.063
x2 = 0.005588, x1 = 0.001276 | 2.64 ± 0.11 | 2.289 ± 0.095 | 1.996 ± 0.083 | 1.757 ± 0.073 | 1.559 ± 0.064

CCCCCCCCCCCC[P+](CCCC)(CCCC)CCCC.c1c[n-]nn1 + COCCOCCOCCOCCOC
100 kPa
Conditions | viscosity [mPa·s]
278.15 K, x2 = 0.305 | 361 ± 16
278.15 K, x2 = 0.596 | 73 ± 1
288.15 K, x2 = 0.123 | 549 ± 28
288.15 K, x2 = 0.395 | 124 ± 3
293.15 K, x2 = 0.123 | 383 ± 17
293.15 K, x2 = 0.495 | 59 ± 1
298.15 K, x2 = 0.305 | 107 ± 2

CCOCC[n+]1ccn(CCC#N)c1.O=S(=O)([N-]S(=O)(=O)C(F)(F)F)C(F)(F)F + CS(C)=O
101.3 kPa
Conditions | electrical conductivity [S/m] | viscosity [mPa·s]
293.15 K, x1 = 0.0989 | 0.00113 ± 4.1e-05 | –
293.15 K, x1 = 0.1981 | 0.00401 ± 0.0002 | –
293.15 K, x1 = 0.2776 | 0.00964 ± 0.00043 | –
293.15 K, x1 = 0.597 | 0.0383 ± 0.001 | 59.7 ± 1.9
293.15 K, x1 = 0.798 | – | 102.3 ± 4.5
293.15 K, x1 = 0.89 | 0.0703 ± 0.0014 | 210.3 ± 8
303.15 K, x1 = 0.0989 | 0.00132 ± 4.7e-05 | –
303.15 K, x1 = 0.1981 | 0.00478 ± 0.00024 | –
303.15 K, x1 = 0.721 | 0.0577 ± 0.0017 | 40.7 ± 1.2
313.15 K, x1 = 0.0989 | 0.00155 ± 5.8e-05 | –
313.15 K, x1 = 0.1981 | 0.00607 ± 0.00032 | –
323.15 K, x1 = 0.0989 | 0.00196 ± 7.4e-05 | 3.457 ± 0.076
323.15 K, x1 = 0.1981 | 0.00772 ± 0.00043 | 4.04 ± 0.11
323.15 K, x1 = 0.3971 | 0.0389 ± 0.0017 | 9.78 ± 0.32
323.15 K, x1 = 0.5029 | 0.0621 ± 0.0027 | 13.05 ± 0.51
323.15 K, x1 = 0.721 | 0.108 ± 0.0034 | 20.71 ± 0.63

CC[n+]1ccn(C)c1.N#C[S-] + CS(C)=O
101 kPa, x1 = 0.3333
Conditions | viscosity [mPa·s]
293.15 K | 3.24 ± 0.33
308.15 K | 2.36 ± 0.24
328.15 K | 1.57 ± 0.16
